Consider 22 molecules from patent US20230348369A1 (Cytokinetics, Inc., priority 2020, published 2023).

pEC50: −log10 of the molar value.

Test [1] addresses human NAMPT (Homo sapiens, UniProt P43490). Briefly: Human recombinant enzyme assay (NMN fluorescence biochemical assay, activation of NAMPT). Particulars: Table A, human recombinant NAMPT, NMN formation, 60 min; for pEC50: read-out: EC50 Human. The method, boiled down:
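Activation of recombinant human NAMPT (6 nM) with 2.5 mM ATP, 20 μM PRPP and 150 μM nicotinamide in 50 mM HEPES pH 7.2, 1 mM DTT, 1 mM CHAPS, 50 mM NaCl, 100 mM MgCl2; 60 min, ambient temperature. NMN formed was derivatized with acetophenone/KOH/formic acid, fluorescence read at 355/460 nm after 40 min.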

The target in test [2] is T1, endogenous NAMPT (Homo sapiens, UniProt P43490).
T1 construct: stimulate the endogenous NAMPT in a native cellular environment; endogenous in cells; host or cells: SH-SY5Y neuroblastoma cells
T1 sequence (P43490 whole entry): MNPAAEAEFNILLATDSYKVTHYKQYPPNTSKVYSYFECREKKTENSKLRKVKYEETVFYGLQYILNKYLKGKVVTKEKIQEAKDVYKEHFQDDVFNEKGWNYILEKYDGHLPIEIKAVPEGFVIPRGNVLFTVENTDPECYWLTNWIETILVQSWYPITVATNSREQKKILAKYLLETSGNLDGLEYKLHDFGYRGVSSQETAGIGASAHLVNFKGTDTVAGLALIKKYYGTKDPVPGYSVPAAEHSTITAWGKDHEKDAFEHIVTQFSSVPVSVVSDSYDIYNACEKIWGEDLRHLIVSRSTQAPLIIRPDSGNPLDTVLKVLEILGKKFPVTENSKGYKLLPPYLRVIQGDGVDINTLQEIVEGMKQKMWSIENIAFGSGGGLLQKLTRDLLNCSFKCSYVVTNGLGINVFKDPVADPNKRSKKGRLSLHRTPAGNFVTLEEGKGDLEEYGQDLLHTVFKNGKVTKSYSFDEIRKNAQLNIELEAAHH
Briefly: Cellular NAD+ modulation assay in neuroblastoma SH-SY5Y cells. It counts as cell-based. Particulars: Table B, SH-SY5Y cells, cellular NAD levels, doxorubicin, 40 hours; for pEC50: read-out: EC50. Here is the method: The compounds described herein were also assayed for their ability to stimulate the endogenous NAMPT in a native cellular environment in the cellular NAD+ modulation assay, which measures the ability of the compound to modulate cellular NAD levels. Increased levels of NAD are expected by compounds that permeate the cells and activate the catalytic activity of the endogenous NAMPT.
Neuroblastoma SH-SY5Y cells were grown in 1:1 mixture of Eagle's Minimum Essential Medium and F12 Medium, along with 10% fetal bovine serum, in a humidified incubator with an atmosphere of 95% air and 5% CO2 at 37° C. The assays were initiated by plating 20 μL of SH-SY5Y cells in culture medium with 0.1% fetal bovine serum, at a density of 5000 cells per well to a 384-well Corning™ BioCoat™ Poly-D-Lysine Multiwell Plates. The plates were incubated in the 37° C. incubators for a period of 5 hours. Compounds in DMSO were added to the plates in a volume of 120 nL using the Labcyte Echo Liquid Handlers. […] The plates are then incubated for 40 hours. 30 μL of a readout-solution containing 0.2 U/mL Diaphorase enzyme, 40 uM resazurin, 10 uM FMN, 0.8 U/mL Alcohol dehydrogenase, 3% ethanol, 0.4 mg/mL bovine serum albumin, 0.2% Triton X-100 in 100 mM Tris-HCl, 30 mM EDTA, pH 8.4. The plates were read for fluorescence (Excitation/Emission=540 nm/590 nm) using an EnVision plate reader after 60 mins of incubation at ambient temperature.

Broadly, the pEC50 is the negative decadic logarithm of the EC50, by convention in mol/L.

human NAMPT, sequence (P43490 whole entry): as above

With `CN(C(=O)CCCCCNC(=O)NCc1cn[nH]c1)c1ccccc1F` [Compound 287, 6-(3-((1H-pyrazol-4-yl)methyl)ureido)-N-(2-fluorophenyl)-N-methylhexanamide], in test [1], the “AC1.4 Human” value turned out to be 0.1 µM and the pEC50 was 5.36. Moreover, in test [2], the AC0.3 worked out at 0.3 µM and the pEC50 is 6.00.
`COc1ccc(CNC(=O)NC2CC3(CC(Cn4ncc5ccccc54)C3)C2)cc1` (stereo not drawn) [Compound 134]: in test [1], the “AC1.4 Human” value was determined as 0.6 µM and the pEC50 is 5.14. In test [2], the AC0.3 worked out at 8.0 µM and the pEC50 is 4.90.
Take `Cc1ccc(C(=O)N2CC3(CC(NC(=O)NCc4ccc(C(N)=O)cc4)C3)C2)cc1` [Compound 211, 4-((3-(2-(4-methylbenzoyl)-2-azaspiro[3.3]heptan-6-yl)ureido)methyl)benzamide]: in test [1], the “AC1.4 Human” value came to 0.5 µM and the pEC50 is 4.56. Further, the AC0.3 in test [2] was over 20.1 µM.
`[2H]C([2H])(CCCC1CCN(C(=O)c2ccccc2)CC1)NC(=O)NCc1cnco1` [Compound 293, 1-(4-(1-benzoylpiperidin-4-yl)butyl-1,1-d2)-3-(oxazol-5-ylmethyl)urea]: in test [1], the “AC1.4 Human” value came to 0.1 µM and the pEC50 is 5.82. Also, in test [2], the AC0.3 worked out at 0.3 µM and the pEC50 is 6.52.
The corresponding values for `NC(=O)c1ccc(CNC(=O)NC2CC3(C2)CC(NC(=O)c2ccccc2)C3)cc1` (stereo not drawn) [Compound 14, N-(6-(3-(4-carbamoylbenzyl)ureido)spiro[3.3]heptan-2-yl)benzamide] are 2.7 µM, 4.45, over 20.1 µM and at most 4.70.
The corresponding values for `COc1ccc(CNC(=O)NC2CC3(C2)CC(C(=O)N2CCN(CC(C)(C)O)CC2)C3)cc1` (stereo not drawn) [Compound 76, 1-(6-(4-(2-hydroxy-2-methylpropyl)piperazine-1-carbonyl)spiro[3.3]heptan-2-yl)-3-(4-methoxybenzyl)urea] are 0.7 µM, 4.75, 5.9 µM and 5.33.
The corresponding values for `O=C(NCc1ccc(Cl)cc1)NC1CC2(C1)CC(NS(=O)(=O)Cc1ccccc1Cl)C2` (stereo not drawn) [Compound 120, N-(6-(3-(4-chlorobenzyl)ureido)spiro[3.3]heptan-2-yl)-1-(2-chlorophenyl)methanesulfonamide] are 0.5 µM, 5.59, 0.2 µM and 6.52.
As to `COc1ccc(CNC(=O)NC2CC3(C2)CC(NC(=O)OC(C)(C)C)C3)cc1` (stereo not drawn) [Compound 7, tert-butyl (6-(3-(4-methoxybenzyl)ureido)spiro[3.3]heptan-2-yl)carbamate], in test [1], the “AC1.4 Human” value was determined as 5.1 µM and the pEC50 is 4.58. In test [2], the AC0.3 was 2.4 µM and the negative-log EC50 (pEC50) is 5.33.
Turning to `CN(C(=O)[C@H]1C[C@@]2(C[C@H](NC(=O)NCc3ccc(Cl)cc3)C2)C1)C1CCOC1` (stereo partly drawn) [Compound 202, (2S,4s,6S)-6-(3-(4-chlorobenzyl)ureido)-N-methyl-N-((R)-tetrahydrofuran-3-yl)spiro[3.3]heptane-2-carboxamide], in test [1], the “AC1.4 Human” value is 0.9 µM and the pEC50 is 5.66. In test [2], the AC0.3 was found to be 0.5 µM and the pEC50 was 6.22.
On the same counts, the results for `COc1ccc(CNC(=O)NC2CC3(C2)CC(C(=O)N2CCCc4ccccc42)C3)cc1` (stereo not drawn) [Compound 71, 1-(4-methoxybenzyl)-3-(6-(1,2,3,4-tetrahydroquinoline-1-carbonyl)spiro[3.3]heptan-2-yl)urea] are 0.1 µM, 5.82, 0.3 µM and 6.05.
Turning to `COc1ccc(CNC(=O)NC2CC3(C2)CC(C(=O)N(C)C2CCOC2)C3)cc1` (stereo in doubt) [Compound 79, (R)-6-(3-(4-methoxybenzyl)ureido)-N-methyl-N-(tetrahydrofuran-3-yl)spiro[3.3]heptane-2-carboxamide], in test [1], the “AC1.4 Human” value came out at 1.4 µM and the pEC50 is 4.40. In test [2], the AC0.3 came to 5.8 µM and the pEC50 was 5.24.
Regarding `COc1ccc(CNC(=O)NC2CC3(C2)CC(C(=O)N2CCCc4cc(C)ccc42)C3)cc1` (stereo not drawn) [Compound 84, 1-(4-methoxybenzyl)-3-(6-(6-methyl-1,2,3,4-tetrahydroquinoline-1-carbonyl)spiro[3.3]heptan-2-yl)urea], in test [1], the “AC1.4 Human” value was found to be 0.1 µM and the pEC50 is 5.55. In test [2], the AC0.3 came to 5.3 µM and the pEC50 was 4.90.
On the same counts, the results for `Cc1ccc(C(=O)N2CC3(CC(NC(=O)NCc4ccncc4)C3)C2)cc1` [Compound 210, 1-(2-(4-methylbenzoyl)-2-azaspiro[3.3]heptan-6-yl)-3-(pyridin-4-ylmethyl)urea] are 1.9 µM, 4.30, 9.7 µM and 5.05.
The corresponding values for `COc1ccc(CNC(=O)NCCCCC2CCN(C(=O)c3ccccc3C)CC2)cc1` [Compound 322, 1-(4-methoxybenzyl)-3-(4-(1-(2-methylbenzoyl)piperidin-4-yl)butyl)urea] are 0.1 µM, 5.64, 0.2 µM and 6.52.
The corresponding values for `O=C(NCCCCC1CCN(C(=O)c2ccccc2)CC1)NCc1cnco1` [Compound 23, 1-(4-(1-benzoylpiperidin-4-yl)butyl)-3-(oxazol-5-ylmethyl)urea] are 0.1 µM, 5.85, 0.3 µM and 6.52.
On to `O=C(NCCOCCOc1ccccc1)NCc1ccc(Cl)cc1` [Compound 196, 1-(4-chlorobenzyl)-3-(2-(2-phenoxyethoxy)ethyl)urea], for which, in test [1], the “AC1.4 Human” value was determined as 3.7 µM and the pEC50 is 4.59. In test [2], the AC0.3 came to 1.0 µM and the pEC50 is 5.48.
As to `COc1ccc(CNC(=O)NC2CC3(C2)CC(C(=O)N2Cc4ccccc4C2)C3)cc1` (stereo not drawn) [Compound 73, 1-(6-(isoindoline-2-carbonyl)spiro[3.3]heptan-2-yl)-3-(4-methoxybenzyl)urea], in test [1], the “AC1.4 Human” value was found to be 1.2 µM and the pEC50 is 5.11. Moreover, in test [2], the AC0.3 was found to be 0.8 µM and the pEC50 is 6.10.
On to `COc1ccc(CNC(=O)NC2CC3(CC(Cc4ccncc4)C3)C2)cc1` (stereo not drawn) [Compound 330, 1-(4-methoxybenzyl)-3-(6-(pyridin-4-ylmethyl)spiro[3.3]heptan-2-yl)urea], for which, in test [1], the “AC1.4 Human” value was found to be 0.1 µM and the pEC50 is 5.41. In addition, in test [2], the AC0.3 came out at 0.5 µM and the pEC50 is 5.09.
On to `O=C(NCCCCC(=O)N1CCCc2ccccc21)NCc1ccc(Cl)cc1` [Compound 256, 1-(4-chlorobenzyl)-3-(5-(3,4-dihydroquinolin-1(2H)-yl)-5-oxopentyl)urea], for which, in test [1], the “AC1.4 Human” value came to 1.0 µM and the pEC50 is 5.70. For the same molecule, in test [2], the AC0.3 was 0.3 µM and the pEC50 was 6.52.
For `COc1ccc(CNC(=O)NC2CC3(C2)CC(C(=O)N(C)c2ccccc2)C3)cc1` (stereo not drawn) [Compound 87, 6-(3-(4-methoxybenzyl)ureido)-N-methyl-N-phenylspiro[3.3]heptane-2-carboxamide], in test [1], the “AC1.4 Human” value was determined as 0.6 µM and the pEC50 was 4.56. Also, in test [2], the AC0.3 was 3.4 µM and the pEC50 was 5.62.
On the same counts, the results for `COc1ccc(CNC(=O)NC2CC3(C2)CN(C(=O)c2ccnc(C)c2)C3)cc1` [Compound 140, 1-(4-methoxybenzyl)-3-(2-(2-methylisonicotinoyl)-2-azaspiro[3.3]heptan-6-yl)urea] are 7.5 µM, 4.28, 8.2 µM and 5.20.
As for `Cc1ccc(C(=O)N2CC3(CC(NC(=O)NCc4ccc(Cl)cc4)C3)C2)cc1` [Compound 206, 1-(4-chlorobenzyl)-3-(2-(4-methylbenzoyl)-2-azaspiro[3.3]heptan-6-yl)urea], in test [1], the “AC1.4 Human” value turned out to be 2.2 µM and the pEC50 was 5.37. For the same molecule, in test [2], the AC0.3 worked out at 0.2 µM and the pEC50 was 6.30.
